Test results: PubChem BioAssay (NCI)
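Assay format: 96-well plates, 48-hour exposure. GI50 = concentration required for 50% inhibition of growth. Definition used: TGI = concentration required for complete inhibition of growth.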

Columns and labels:
Experiment in all cases: NCI-60 cell line screen, 48 h
U251 CNS = test system: U251 CNS
MALME-3M melanoma = test system: MALME-3M melanoma
UO-31 renal = test system: UO-31 renal
TK-10 renal = test system: TK-10 renal
UACC-62 melanoma = test system: UACC-62 melanoma
SR leukemia = test system: SR leukemia
HOP-92 NSCLC = test system: HOP-92 NSCLC
BT-549 breast = test system: BT-549 breast
MDA-MB-435 = test system: MDA-MB-435
PC-3 prostate = test system: PC-3 prostate

Row | SMILES | TGI (U251 CNS) | TGI (MALME-3M melanoma) | TGI (UO-31 renal) | TGI (TK-10 renal) | TGI (UACC-62 melanoma) | TGI (SR leukemia) | TGI (HOP-92 NSCLC) | TGI (BT-549 breast) | TGI (MDA-MB-435) | TGI (PC-3 prostate) | GI50 (BT-549 breast) | GI50 (MALME-3M melanoma) | GI50 (UO-31 renal) | GI50 (PC-3 prostate) | GI50 (TK-10 renal) | GI50 (HOP-92 NSCLC) | GI50 (U251 CNS) | GI50 (UACC-62 melanoma) | GI50 (SR leukemia)
1 | COC(=O)[C@]1(C)C(OC)=CC(=O)C2C1[C@H]1CCC[C@@H]21 (some centres undefined) | > 100 µM | > 100 µM | > 100 µM | > 100 µM | > 100 µM | > 100 µM | > 100 µM | – | – | – | – | – | – | – | – | – | – | – | –
2 | COc1c(Sc2ccccc2)cc(Sc2ccccc2)c2cccnc12 | 70.7 µM | 44.1 µM | 54 µM | 81.3 µM | 63.2 µM | – | – | – | – | – | – | – | – | – | – | – | – | – | –
3 | O=C(O)Cc1ccccc1CCc1ccccc1Cl | > 100 µM | > 100 µM | > 100 µM | > 100 µM | – | > 100 µM | > 100 µM | – | – | – | – | – | – | – | – | – | – | – | –
4 | CN1c2ccccc2S(=O)(=O)n2c(CCc3ccccc3)nnc21 | > 100 µM | – | > 100 µM | > 100 µM | > 100 µM | – | 98.7 µM | > 100 µM | > 100 µM | > 100 µM | – | – | – | – | – | – | – | – | –
5 | CC[C@H](Nc1nc(N)nc(C2CC2)c1C#N)c1nc2cccc(NCc3ccc(C(=O)NO)cc3)c2c(=O)n1-c1ccccc1 | – | 4.61 µM | 2.59 µM | 30.3 µM | – | – | 4.59 µM | 7.84 µM | – | 14.6 µM | 2.5 µM | 1.78 µM | 1.26 µM | 2.11 µM | 2.75 µM | 1.73 µM | – | – | –
6 | O=c1cc(-c2ccccn2)[nH]c2cc(F)ccc12 | – | > 100 µM | > 100 µM | > 100 µM | > 100 µM | > 100 µM | > 100 µM | – | – | – | – | – | – | – | – | – | – | – | –
7 | CS(=O)(=O)NNS(=O)(=O)c1ccc(Cl)cc1 | > 100 µM | > 100 µM | > 100 µM | > 100 µM | > 100 µM | > 100 µM | – | – | – | – | – | – | – | – | – | – | – | – | –
8 | COC(=O)c1ccc(C(=O)OC)c2nc3cc(C)ccc3nc12 | > 100 µM | > 100 µM | > 100 µM | > 100 µM | > 100 µM | – | > 100 µM | – | – | – | – | – | – | – | – | – | – | – | –
9 | CCCCCCCCCCCCCC(=O)NCC(OCC)OCC | > 100 µM | > 100 µM | > 100 µM | > 100 µM | > 100 µM | – | > 100 µM | – | – | – | – | – | – | – | – | – | – | – | –
10 | COc1cc(C2c3cc4c(cc3[C@@H](OCCN(C)C)C3COC(=O)[C@H]23)OCO4)cc(OC)c1O (some centres undefined) | 1.27 µM | 1.87 µM | 2.04 µM | 5.49 µM | 1.38 µM | 0.0831 µM | 1.55 µM | – | – | – | – | – | – | – | – | – | – | – | –
11 | O=C(O)c1cccc(/C=C/c2ccccc2)c1 | > 100 µM | > 100 µM | > 100 µM | > 100 µM | > 100 µM | – | > 100 µM | > 100 µM | > 100 µM | > 100 µM | – | – | – | – | – | – | – | – | –
12 | COC(=O)C1Cc2c([nH]c3ccccc23)C(c2ccccc2O)N1Cc1ccccc1 (centres undefined) | 39.5 µM | > 31.6 µM | > 46.4 µM | > 46.4 µM | 33.1 µM | > 31.6 µM | 43.5 µM | – | – | – | – | – | – | – | – | – | – | – | –
13 | CC1(C)C(=O)C=CC2(C)C1CC(O)C1(C)C2CCC2(C)C(c3ccoc3)OC(=O)C3OC321 (centres undefined) | 40.5 µM | – | 25.8 µM | 37.5 µM | 26.9 µM | – | 38.5 µM | 41.1 µM | 72.7 µM | > 100 µM | – | – | – | – | – | – | – | – | –
14 | COC(=O)[C@H]1N[C@@H](C(=O)OC)C23CCC[C@H]2CC[C@]1(C(OC)OC)C3 | > 100 µM | > 100 µM | > 100 µM | > 100 µM | > 100 µM | – | > 100 µM | – | – | – | – | – | – | – | – | – | – | – | –
15 | CC(/C=C/NNC1=NC(c2ccccc2)C(c2ccccc2)=NN1)Sc1ccccc1N (centres undefined) | 8.39 µM | 20.9 µM | 20.1 µM | 27.2 µM | 10.8 µM | 21 µM | 22.8 µM | – | – | – | – | – | – | – | – | – | – | – | –
16 | CCOC(=O)c1c2c(n(Cc3ccccc3)c1C)-c1nc(Cc3ccccc3)[nH]c1C(=O)C2=O | 3.15 µM | 3.26 µM | 2.64 µM | 3.08 µM | 3.55 µM | 4.02 µM | 2.45 µM | 2.99 µM | – | 3.2 µM | 1.43 µM | 1.61 µM | 1.32 µM | 1.45 µM | 1.48 µM | 1.17 µM | 1.77 µM | 1.74 µM | 1.65 µM
17 | COc1ccccc1NC(=O)C1=C(C)NC(C)=C(C(=O)Nc2ccccc2OC)C1c1ccc(N(C)C)cc1 | > 100 µM | > 100 µM | > 100 µM | > 100 µM | – | – | 38.6 µM | – | – | – | – | – | – | – | – | – | – | – | –
18 | COC(=O)[C@]1(C)CCC[C@@]2(C)[C@@H]3C[C@@H]4[C@H]5C[C@@]3(CC[C@@H]21)C[C@@]45C | 63.7 µM | 37.3 µM | 29.4 µM | 28.3 µM | 28 µM | – | 29.4 µM | 30.2 µM | 38.7 µM | 29.3 µM | – | – | – | – | – | – | – | – | –
19 | NC(=O)c1csc(C2CCC(CO)O2)n1 (centres undefined) | > 100 µM | > 100 µM | > 100 µM | > 100 µM | > 100 µM | – | > 100 µM | – | – | – | – | – | – | – | – | – | – | – | –
